The source of these data is patent US6083967A, “S-oxide and S,S-dioxide tetrahydrothiopyran phenyloxazolidinones” (Pharmacia & Upjohn Company, priority 1998, dated 2000).

The test system of one test is S. aureus UC 9213. Description: MIC by agar dilution against S. aureus UC 9213. In kind it is cell-based. Particulars: Staphylococcus aureus, UC9213, in vitro. An excerpt: (§1) The oxazolidinone antibacterial agents of this invention have useful activity against a variety of organisms. The in vitro activity of compounds of this invention can be assessed by standard testing procedures such as the determination of minimum inhibitory concentration (MIC) by agar dilution as described in "Approved Standard. Methods for Dilution Antimicrobial Susceptibility Tests for Bacteria That Grow Aerobically", 3rd. ed., published 1993 by the National Committee for Clinical Laboratory Standards, Villanova, Pa., USA.
For orientation: In agar dilution the substance is mixed into plates at graded concentrations.

The target of another test is T1, human MAO A (Homo sapiens, UniProt P21397).
T1 construct: Human placental MAO A is solubilized and purified as described; from tissue; host or cells: human placenta (enzyme supplied by Dr. Neal Castagnoli Jr's lab, Virginia Technical University)
T1 sequence (P21397 1-527): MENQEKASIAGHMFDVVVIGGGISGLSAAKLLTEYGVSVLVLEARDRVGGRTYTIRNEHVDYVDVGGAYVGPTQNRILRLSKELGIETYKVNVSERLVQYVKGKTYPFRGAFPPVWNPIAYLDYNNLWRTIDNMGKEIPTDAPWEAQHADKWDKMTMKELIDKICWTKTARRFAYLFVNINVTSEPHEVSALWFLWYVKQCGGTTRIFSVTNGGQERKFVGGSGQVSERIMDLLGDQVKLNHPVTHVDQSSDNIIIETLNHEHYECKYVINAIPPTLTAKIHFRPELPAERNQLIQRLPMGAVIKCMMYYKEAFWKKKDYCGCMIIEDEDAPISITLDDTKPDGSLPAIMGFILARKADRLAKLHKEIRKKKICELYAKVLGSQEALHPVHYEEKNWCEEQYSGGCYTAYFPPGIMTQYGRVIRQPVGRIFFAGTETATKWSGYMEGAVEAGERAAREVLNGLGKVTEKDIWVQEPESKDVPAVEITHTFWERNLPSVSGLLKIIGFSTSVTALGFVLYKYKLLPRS
Description: Continuous spectrophotometric assay of inhibitory activity to human MAO-A. In kind it is biochemical. The conditions noted are these: pH 7.3, 37° C., 80 μM substrate, 1% DMSO, 15 minutes pre-incubation; read-out: Ki, inhibition of human MAO A. An excerpt: The continuous spectrophotometric assay for measuring MAO activity is based on a colored oxidation product of the chromogenic substrate, 1-methyl-4-(1-methyl-2-pyrryl)-1,2,3,6-tetrahydropyridine, by MAO enzymes. The product is stable for many days at room temperature. The conversion of the substrate to the oxidation product is followed continuously from the moment of mixing of the MAO enzyme with the substrate and the initial reaction rate curve is directly observed. The bright yellow-green oxidation product has a peak absorption at 421 nm with a broad band that can be measured between 390 nm to 440 nm. Thus, the assay can be performed on the least sophisticated spectrophotometric equipment.
Human placental MAO A is solubilized and purified as described in N. Castagnoli Jr. et al., J. Med Chem. Vol. 39, pp. 4756-4761 (1996) and J. I. Salach et al., J. of Bio. Chem., Vol. 260, p. 13199 (1985). The human placental MAO A is obtained as a concentrated solution (5 nmols per ml). Bovine liver MAO B is purified as described N. Castagnoli Jr. et al., J. Med Chem., Vol. 39, pp. 4756-4761 (1996) and J. I. Salach et al., Methods Enzymol., Vol. 142, pp […] (1987). The bovine liver MAO B is obtained as a concentrated solution (8 nmols per ml). Working stocks of the enzyme solutions are made by 1/50 dilution of initial stocks into 50 mM sodium phosphate and optionally 10% glycerol. The solutions are kept on ice until final dilution into the assay. Alternatively, the frozen MAO enzymes may be diluted 800-3200 fold into the 50 mM sodium phosphate buffer immediately before use. This method is useful when screening a large number of oxazolidinones.
Oxazolidinones are prepared in DMSO at a concentration of 50 mM. Serial dilutions of the 50 mM stock solution are made in DMSO to form additional stock solutions ranging from […] to 0.3125 mM. The stock solutions are then frozen until use. The stocks are diluted 1/100 into the final enzyme assay volume at the time of assay.
Typically, the enzyme, along with an oxazolidinone inhibitor, are preincubated for approximately 15 minutes in the sodium phosphate buffer prior to assay. The reactions are started by addition of the substrate. Initial velocities are generally collected over an interval of one to sixty minutes.
The assay functions well in the spectrophotometer cuvette for evaluating single oxazolidinone's MAO inhibitory activity. The assay has also been successfully adapted to operate in high throughput microtiterplate format (i.e., 96, 384 and 1536 well plate readers). Hundreds of assays can be run simultaneously. Assay volumes are 250 μL and the wells have an effective path length of 0.75 cm. Generally, the final composition of the assay in the microtiterplate comprises […] sodium phosphate (pH=7.3), oxazolidinone having concentration ranging up to 500 μM, 1% DMSO, 80 μM substrate (MAO A) or 200 μM substrate (MAO B), and sufficient enzyme to produce an absorbance change from 0.0005 to 0.050 per minute at 421 nm. The reaction is run at 37° C., and rapid temperature equilibration of the assay solution is achieved by preincubating the plate and stock solutions at about 37° C. The reaction is followed by recording the increase in absorbance at 421 nm. The oxidation product has an extinction coefficient of 25,000 M^-1 cm^-1 at 420. See: N. Castagnoli Jr. et al., J. Med Chem., Vol. 39, pp. 4756-4761 (1996). Initial rates are determined by linear regression of the progress curves over an absorbance change of 0.06-0.12 at 421 nm. This range represents a substrate consumption of approximately 5% in the assay. The percentage inhibition of an oxazolidinone is determined from the following equation
In the above equation, the term "negative control" refers to a complete assay with 1% of DMSO but no MAO enzyme. The term "positive control" refers to a complete assay with 1% of DMSO but no inhibitor. The term "rate (I)" refers to the reaction rate under a complete assay conditions. […]

The subject of a further test is H. influenzae 30063. Description: MIC by agar dilution against H. influenzae 30063. In kind it is cell-based. The conditions noted are these: Haemophilus influenzae, in vitro.
Description: as §1

In brackets after ≈: the same amount, converted by molar mass. Where only a bound is given, the exact number is not on record here.

As to `CC(=O)NC[C@H]1CN(c2ccc([C@H]3CC[S@@+]([O-])CC3)c(F)c2)C(=O)O1` [Example 1, (-)-N-[[(5S)-3-[3-fluoro-4-(cis-tetrahydro-1-oxido-2H-thiopyran-4-yl)phenyl]-2-oxo-5-oxazolidinyl]methyl]acetamide], the MIC against S. aureus UC 9213 worked out at 4 µg/mL (≈ 10.9 µM); in the test with H. influenzae 30063 it was 8 µg/mL (≈ 21.7 µM). Moreover, at human MAO A, the Ki (in general, a dissociation constant, usually derived from enzyme kinetics or from competition with a known ligand) is 648 µM.
Regarding `CCC(=O)NC[C@H]1CN(c2ccc([C@H]3CC[S@@+]([O-])CC3)c(F)c2)C(=O)O1` [Example 2, (-)-N-[[(5S)-3-[3-fluoro-4-(cis-tetrahydro-1-oxido-2H-thiopyran-4-yl)phenyl]-2-oxo-5-oxazolidinyl]methyl]propanamide], the MIC in the test with S. aureus UC 9213 was determined as 8 µg/mL (≈ 20.9 µM); against H. influenzae 30063, 16 µg/mL (≈ 41.8 µM). In addition, the Ki at human MAO A was > 3000 µM.
Turning to `O=C(NC[C@H]1CN(c2ccc([C@H]3CC[S@@+]([O-])CC3)c(F)c2)C(=O)O1)C1CC1` [Example 3, (-)-N-[[(5S)-3-[3-fluoro-4-(cis-tetrahydro-1-oxido-2H-thiopyran-4-yl)phenyl]-2-oxo-5-oxazolidinyl]methyl]cyclopropanecarboxamide], the MIC was determined as 8 µg/mL (≈ 20.3 µM) in the test on S. aureus UC 9213 and 16 µg/mL (≈ 40.6 µM) against H. influenzae 30063. Besides, on human MAO A, the Ki came out at 734 µM.
The like results for `O=C(NC[C@H]1CN(c2ccc([C@H]3CC[S@@+]([O-])CC3)c(F)c2)C(=O)O1)C(Cl)Cl` [Example 4, (-)-2,2-Dichloro-N-[[(5S)-3-[3-fluoro-4-(cis-tetrahydro-1-oxido-2H-thiopyran-4-yl)phenyl]-2-oxo-5-oxazolidinyl]methyl]acetamide] were, in that order, 2 µg/mL (≈ 4.57 µM), 8 µg/mL (≈ 18.3 µM) and 2570 µM.
The like results for `CCC(=O)NC[C@H]1CN(c2ccc(C3CCS(=O)(=O)CC3)c(F)c2)C(=O)O1` [Example 5, (-)-N-[[(5S)-3-[3-fluoro-4-(tetrahydro-1,1-dioxido-2H-thiopyran-4-yl)phenyl]-2-oxo-5-oxazolidinyl]methyl]propanamide] were, in that order, 4 µg/mL (≈ 10 µM), 8 µg/mL (≈ 20.1 µM) and 3000 µM.
The like results for `O=C(NC[C@H]1CN(c2ccc(C3CCS(=O)(=O)CC3)c(F)c2)C(=O)O1)C(Cl)Cl` [Example 6, (-)-2,2-dichloro-N-[[(5S)-3-[3-fluoro-4-(tetrahydro-1,1-dioxido-2H-thiopyran-4-yl)phenyl]-2-oxo-5-oxazolidinyl]methyl]acetamide] were, in that order, 2 µg/mL (≈ 4.41 µM), 2 µg/mL (≈ 4.41 µM) and > 3000 µM.
With `CCC(=O)NC[C@H]1CN(c2ccc([C@H]3CC[S@+]([O-])CC3)c(F)c2)C(=O)O1` [Example 7, (-)-N-[[(5S)-3-[3-fluoro-4-(trans-tetrahydro-1-oxido-2H-thiopyran-4-yl)phenyl]-2-oxo-5-oxazolidinyl]methyl]propanamide], the MIC with S. aureus UC 9213 and with H. influenzae 30063 was 4 µg/mL (≈ 10.5 µM) each time. Further, on human MAO A, the Ki turned out to be 905 µM.
Regarding `O=C(NC[C@H]1CN(c2ccc([C@H]3CC[S@+]([O-])CC3)c(F)c2)C(=O)O1)C1CC1` [Example 8, (-)-N-[[(5S)-3-[3-fluoro-4-(trans-tetrahydro-1-oxido-2H-thiopyran-4-yl)phenyl]-2-oxo-5-oxazolidinyl]methyl]cyclopropanecarboxamide], the MIC is 8 µg/mL (≈ 20.3 µM) in the test with S. aureus UC 9213 and 16 µg/mL (≈ 40.6 µM) against H. influenzae 30063. Besides, on human MAO A, the Ki is > 3000 µM.
The like results for `O=C(NC[C@H]1CN(c2ccc([C@H]3CC[S@+]([O-])CC3)c(F)c2)C(=O)O1)C(Cl)Cl` [Example 9, (-)-2,2-dichloro-N-[[(5S)-3-[3-fluoro-4-(trans-tetrahydro-1-oxido-2H-thiopyran-4-yl)phenyl]-2-oxo-5-oxazolidinyl]methyl]acetamide] were, in that order, 1 µg/mL (≈ 2.29 µM), 2 µg/mL (≈ 4.57 µM) and 396 µM.
